Consider eight compounds from PubChem BioAssay AID485301 (The Scripps Research Institute Molecular Screening Center, 2010).

Among the targets are NS3h 1b (con1); NS3h 1b (J4); NS3h 2a (JFH1).
Common to all, as to assay: HCV NS3 helicase unwinding inhibitors, late-stage follow-up, selectivity assay, biochemical, real-time fluorescence, genotypes 1b J4, 1b con1, 2a JFH1 (AID 485301)
Conditions in all cases: Cy5 molecular beacon fluorescence

Activity calls are given as the source filed them.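 Rule for the calls: active = IC50 of 10 µM or less against the helicase of at least one HCV strain tested; inactive = the rest.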

As to `COc1ccc(/C=N/NC(=O)c2cc(O)c(O)c(O)c2)cc1COc1ccc(C(=O)OCC(C)C)cc1`, the IC50 at NS3h 1b (con1) and on NS3h 1b (J4) was > 500 µM (inactive) throughout.
Consider `COc1cccc(-n2c(SCc3cc(=O)oc4cc(O)c(O)cc34)nc3ccccc3c2=O)c1`, for which the IC50 on NS3h 1b (con1), at NS3h 1b (J4) and at NS3h 2a (JFH1) was > 500 µM (inactive) in each case.
As to `Cc1cc(N2C(=O)C(O)=C(C(=O)c3ccc(C)o3)C2c2ccc(OCc3ccccc3)cc2)no1` (stereo not drawn), the IC50 at NS3h 1b (con1), on NS3h 1b (J4) and at NS3h 2a (JFH1) was > 500 µM (inactive) throughout.
In the case of `CCCCCOc1ccc(C2C(C(=O)c3ccc(C)o3)=C(O)C(=O)N2c2cc(C)on2)cc1` (stereo not drawn), the IC50 on NS3h 1b (con1), at NS3h 1b (J4) and on NS3h 2a (JFH1) was > 500 µM (inactive) each time.
As to `COc1ccc(C=NNC(=O)c2cc(O)c(O)c(O)c2)cc1COc1ccc(C(=O)OCC(C)C)cc1`, the IC50 at NS3h 1b (con1), on NS3h 1b (J4) and at NS3h 2a (JFH1) was > 500 µM (inactive) in each case.
With `CCOc1cccc(C2C(C(=O)c3ccc(C)o3)=C(O)C(=O)N2Cc2ccccc2)c1` (stereo not drawn), the IC50 on NS3h 1b (con1), on NS3h 1b (J4) and at NS3h 2a (JFH1) was > 500 µM (inactive) throughout.
On to `COc1cc(C2C(C(=O)c3ccc(C)o3)=C(O)C(=O)N2c2cc(C)on2)ccc1OCc1ccccc1` (stereo not drawn), for which the IC50 on NS3h 1b (con1), at NS3h 1b (J4) and at NS3h 2a (JFH1) was > 500 µM (inactive) in each case.
Regarding `Cc1ccc(C(=O)C2=C(O)C(=O)N(Cc3ccco3)C2c2cccc(Cl)c2)o1` (stereo not drawn), the IC50 on NS3h 1b (con1), on NS3h 1b (J4) and at NS3h 2a (JFH1) was > 500 µM (inactive) in each case.

Usually IC50 stands for the midpoint of a concentration-inhibition curve.
